PMC10830420, “Structures, functions and adaptations of the human LINE-1 ORF2 protein” (Nature, 2023)
Where two headings read alike, the source gives them in different places. One block for each molecule: values may come before it.

Tests used:
ORF2p core [1] = target: T1, ORF2p core (Homo sapiens, UniProt O00370); test: Homogeneous time-resolved fluorescence (HTRF) ORF2p RT assay; format: biochemical
T1 construct: His6-MBP-3C-ORF2p (238-1061, ORFeus-Hs) in pET41; His6-MBP (3C protease site) (N, cleaved yes); made in house; host or cells: E. coli
Procedure: (§1) ORF2p core was preincubated with a template:primer containing a single site for the incorporation of a given nucleotide analogue. The primer/template sequence shown in the panel a illustrates the case of single incorporation of 3TC, with a single G for incorporation; the incoming template sequence for entecavir and carbovir has a single C, and for d4T a single A, each at position labeled “N”. Reactions were incubated for one minute at 37 °C with a 100 nM dNTP mixture and increasing concentrations of listed inhibitors. IC50 index, fold = IC50 (drug, µM) ÷ [dNTP] […] Fluorescein-labeled dNTPs (here, uracil-TP) are incorporated by ORF2p into a biotinylated primer, here shown against a poly(A) template. Detection is then achieved using FRET with a terbium cryptate labeled streptavidin, and the time-resolved technique and time-delayed emission from terbium cryptate reduces background from other fluorescent chemicals in the mix. In the presence of ORF2p RT inhibitors (RTIs), base incorporation is stopped and FRET signal is lost. […]
(§2) ORF2p reverse transcriptase activity assays […]
For HTRF RT assays157, 25 nM ORF2p core and 12. 5 nM t em plat e: primer was incubated at 25°C for 60 minutes
with 10 nM of fluorescein- 12- dUTP (Thermo), 1 µM each (dATP,dCTP,dGTP), and test compound in a 15 µL
reaction with buffer containing 50 mM Tris-HCl, 50 mM KCl, 10 mM MgCl2, 10 mM DTT, pH 8.1, and 1% final

[2] = target: T2, human telomerase RT (TERT) (Homo sapiens, UniProt O14746); test: Telomerase activity assay in MCF-7 cell lysate; format: biochemical; conditions: NRTI triphosphates
T2 construct: of human telomerase RT (TERT) by NRTI triphosphates in a biochemical assay in MCF-7 cell lysate; endogenous in cells; host or cells: MCF-7 cell lysate

[3] = tested on: L1 retrotransposition reporter in HeLa cells; test: LINE-1 dual luciferase retrotransposition assay in HeLa cells; format: cell-based, human; conditions: for IC50: HeLa cells, stable dual luciferase L1 reporter, normalized to cell viability, n = 3 wells
ORF2p core [4] = target: T1, ORF2p core; test: Gel-based L1 RT assay, ORF2p core, inhibition by NRTI triphosphates; format: biochemical; conditions: 100 nM dNTP mixture; for IC50: NTP forms of NRTIs, one minute at 37 °C
Procedure: as §1, §2
Gel-based RT activity assays consisted of pr e-incubating RTs with annealed DNA/RNA, DNA/DNA, or RNA/RNA 5’- end- radiolabeled or 5’-end-Cy5- o r FAM-labeled template:primer duplex or hybrid duplex and, where indicated, inhibitor in the presence of 0.1- 1 μ M dNTP or NTP mixture, 0.25 mM EDTA, 50 mM NaCl, and 25 mM Tris (pH 8) for 10 min at 37°C. Labeled nucleic acids were purchased from Dharmacon or IDT. Unless otherwise indicated, 15 μL reactions were initiated by the addition of 1.3 mM MgCl2, incubated for 10 min at 37 °C, and then stopped by the addition of 15 μL of formamide/EDTA (25 mM) mixture and incubated at 95 °C for 10 min. 3 μL reaction samples were subjected to denaturing 8 M urea 20% PAGE to resolve products followed by signal quantification (ImageQuant 5.2, GE Healthcare Bio- Sciences) through phosphorimaging (Amersham Typhoon 5, Cytivia). Scanned gel images are […]
minor products; original images are provided in an Extended Data file. […]

[5] = tested on: interferon production in THP1 cells; test: Interferon reporter assay in THP1 cells (secreted luciferase); format: cell-based, human
Procedure: Culture Collection ( AT CC); THP1-Dual and THP1- Dual KO-TREX1 cells were from InvivoGen. All cell lines were maintained at 37 °C and 5% CO2 and validated and tested for mycoplasma. All plasmids and affinity reagents are described in Supplementary Tables 4-5 , respectively and available from Addgene at https://www.addgene.org/browse/article/28243724/. […]
Interferon reporter assay in THP1 cells
The type I interferon response was evaluated using THP1 -Dual and THP1-Dual KO-TREX1 cells (InvivoGen), which secrete a Lucia luciferase reporter gene under control of an interferon- responsive promoter. THP1-Dual KO-TREX1 cell were generated by stable biallelic knock-out of the TREX1 gene. Cell were treated with a dose titration of test compound in the presence of 1 µM 5- aza-2ʹ-deoxycytidine (decitabine, Sigma, #189825), which de- represses LINE-1121. Type 1 Interferon and cell viability were assessed after five days of treatment. QUANTI-LUC solution containing stabilizer was added to the cell supernatant and luminescence was measured on a p la t e reader, and cells were assessed for cell viability using CellTiter-Glo (Promega, #G9683) according to the manufacturer’s instructions.
LINE-1 dual luciferase retrotransposition assay
To assess the potency of inhibiting LINE-1 retrotransposon, a stable clonal dual luciferase L1 reporter cell line was generated and reported as described130,133 in the HeLa Tet-On 3G cell line (Takara, ). SB100x161 was used to integrate pRT006.2, a vector similar to pYX056 130 , which contains a bi-directional Tet-On promoter expressing both control Renilla luciferase and LINE-1 ORFeus-Hs Firefly luciferase antisense intron (AI) r epor t er 79,162. A single cell clone was selected with the highest doxycycline-induced luciferase signal vs baseline. Cells were mixed with compounds and induced for reporter expression with 500 ng/mL doxycycline (Sigma, #D9891) for 72 hours. Luminescence was measured using the Dual-Glo Luciferase Assay System (Promega, #E2940) following the manufacturer’s instructions, and the ratio of Firefly to Renilla Luciferase activity was used to measure […]
Telomerase activity assay
The human telomerase assay was performed with telomerase in MCF- 7 cell lysates using the Telo TAGGG Telomerase PCR ELISAplus kit (Roche). Test compounds (NTPs) were serially diluted in water, mixed with 0.2 µg of M CF- 7 lysate, and pre- incubated at room temperature for 15 minutes. Then the reaction was carried out for 30 minutes, amplified using PCR, and visualized colorimetrically per t he manufacturer’s instructions.
Cells were lysed in ice cold RIPA buffer containing 1x protease inhibitor tablet (Thermo), centrifuged for 10 minutes, and clarified lysates were quantified by BCA assay. […]

[6] = HTRF, NRTIs as triphosphates, n = 3 wells

T2 sequence (O14746 whole entry): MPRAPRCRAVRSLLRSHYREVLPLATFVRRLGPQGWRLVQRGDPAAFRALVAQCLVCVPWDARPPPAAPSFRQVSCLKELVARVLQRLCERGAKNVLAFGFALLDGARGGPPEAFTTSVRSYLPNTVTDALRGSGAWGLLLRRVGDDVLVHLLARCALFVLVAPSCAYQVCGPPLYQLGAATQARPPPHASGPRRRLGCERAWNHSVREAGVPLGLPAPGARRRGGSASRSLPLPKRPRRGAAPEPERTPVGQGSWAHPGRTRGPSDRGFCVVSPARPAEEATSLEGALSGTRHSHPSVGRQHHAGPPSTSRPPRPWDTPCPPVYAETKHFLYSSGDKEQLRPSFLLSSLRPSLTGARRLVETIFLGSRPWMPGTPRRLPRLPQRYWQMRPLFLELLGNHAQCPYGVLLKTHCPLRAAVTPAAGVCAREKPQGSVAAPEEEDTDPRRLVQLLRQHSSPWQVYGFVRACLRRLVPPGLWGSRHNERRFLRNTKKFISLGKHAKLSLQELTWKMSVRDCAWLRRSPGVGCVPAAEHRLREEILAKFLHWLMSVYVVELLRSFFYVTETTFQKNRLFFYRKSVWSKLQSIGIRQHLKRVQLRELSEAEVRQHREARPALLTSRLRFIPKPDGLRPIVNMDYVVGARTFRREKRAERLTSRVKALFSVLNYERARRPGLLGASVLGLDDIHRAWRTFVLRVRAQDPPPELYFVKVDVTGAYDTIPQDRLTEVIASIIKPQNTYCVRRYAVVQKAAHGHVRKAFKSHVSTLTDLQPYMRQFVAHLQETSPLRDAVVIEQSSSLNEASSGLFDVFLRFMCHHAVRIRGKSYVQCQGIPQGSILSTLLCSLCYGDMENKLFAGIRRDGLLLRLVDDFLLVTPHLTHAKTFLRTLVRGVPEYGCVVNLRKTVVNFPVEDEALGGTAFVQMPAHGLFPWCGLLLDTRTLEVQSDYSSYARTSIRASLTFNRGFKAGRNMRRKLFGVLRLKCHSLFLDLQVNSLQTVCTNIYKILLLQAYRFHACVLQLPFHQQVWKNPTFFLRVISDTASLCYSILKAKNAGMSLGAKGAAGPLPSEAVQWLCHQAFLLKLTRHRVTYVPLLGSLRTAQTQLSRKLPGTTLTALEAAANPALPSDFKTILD

Structure (SMILES): CC(C)OC(=O)[C@H](C)N[P@](=O)(OC[C@H]1O[C@@H](n2ccc(=O)[nH]c2=O)[C@](C)(F)[C@@H]1O)Oc1ccccc1 [Sofosbuvir, sofosbuvir]
inhibition in cell-based L1 assays [3]: no inhibition | IC50 ([3]; Homo sapiens, HeLa): > 100 µM

Structure (SMILES): C=C1[C@H](CO)[C@@H](O)C[C@@H]1n1cnc2c(=O)[nH]c(N)nc21 [Entecavir, entecavir]
IC50 index, fold = IC50 (drug, µM) ÷ [dNTP] (natural counterpart, 0.1 µM) (ORF2p core [4]): 5.4 fold | IC50 (ORF2p core [4]): 0.4 to 0.6 µM

Structure (SMILES): Cc1cn([C@H]2C[C@H](N=[N+]=[N-])[C@@H](CO)O2)c(=O)[nH]c1=O [AZT, zidovudine]
fold change in ORF2p inhibitory activity compared with ddTTP and d4T (ORF2p core [1]): greater than 20 fold | IC50 (ORF2p core [1]; HTRF, NRTI NTPs): 0.2 to 0.75 µM | IC50 ([3]; read-out: IC50): 1.8 µM

Structure (SMILES): CC(C)Nc1cccnc1N1CCN(C(=O)c2cc3cc(NS(C)(=O)=O)ccc3[nH]2)CC1 [Delavirdine, delavirdine]
IC50 (ORF2p core [1]; [6]): > 30 µM

Structure (SMILES): Nc1nc2c(ncn2[C@H]2C=C[C@@H](CO)C2)c(=O)[nH]1 [Carbovir, carbovir]
IC50 index, fold = IC50 (drug, µM) ÷ [dNTP] (natural counterpart, 0.1 µM) (ORF2p core [4]): 64 fold | IC50 (ORF2p core [4]): 5 to 7 µM

Structure (SMILES): O=C1Nc2ccc(Cl)cc2[C@@](C#CC2CC2)(C(F)(F)F)O1 [Efavirenz, efavirenz]
IC50 (ORF2p core [1]; [6]): > 30 µM

Structure (SMILES): Nc1nc(=O)n([C@@H]2CS[C@H](CO)O2)cc1F [FTC, emtricitabine]
IC50 ([3]; Homo sapiens, HeLa): 1.1 µM

Structure (SMILES): C[C@H](Cn1cnc2c(N)ncnc21)OCP(=O)(O)O [Tenofovir, tenofovir]
IC50 ([3]; Homo sapiens, read-out: IC50): 3.2 µM

Structure (SMILES): Nc1ncn([C@H]2C[C@H](O)[C@@H](CO)O2)c(=O)n1 [decitabine, 5-aza-2ʹ-deoxycytidine]
interferon (IFN) production ([5]; 1 µM, THP1 monocytes): increased

Structure (SMILES): Cc1cn(C2C=CC(COP(=O)(OCOC(=O)OC(C)C)OCOC(=O)OC(C)C)O2)c(=O)[nH]c1=O (stereo not shown) [POC d4T, d4T bis(isopropoxycarbonyloxymethyl)phosphate]
baseline and decitabine-induced IFN production ([5]; 10 µM, THP1 cells, 1 µM decitabine): reduced IFN further | fold more potent than d4T in suppressing interferon secretion ([5]; TREX1 knockout THP1 cells, 5 days, 1 µM decitabine): approximately 30 fold

More lines, main results first:

IC50 (ORF2p core [1]; [6]): > 30 µM
Structure (SMILES): Cc1cc(C#N)cc(C)c1Oc1nc(Nc2ccc(C#N)cc2)nc(N)c1Br [Etravirine, etravirine]

IC50 (ORF2p core [1]; HTRF, NRTI NTPs): < 0.01 µM
Structure (SMILES): Cc1cn([C@H]2CC[C@@H](CO)O2)c(=O)[nH]c1=O [ddT, dideoxythymidine]

IC50 (ORF2p core [1]; HTRF, NRTI NTPs): 0.009 µM | IC50 [2]: 15 µM
Structure (SMILES): Cc1cn([C@H]2C=C[C@@H](COP(=O)(O)OP(=O)(O)OP(=O)(O)O)O2)c(=O)[nH]c1=O [d4T-TP]

IC50 (ORF2p core [1]; [6]): > 30 µM
Structure (SMILES): Cc1cc(/C=C/C#N)cc(C)c1Nc1ccnc(Nc2ccc(C#N)cc2)n1 [Rilpivirine, rilpivirine]

inhibition of ORF2p (ORF2p core [1]; HTRF, 1 mM): no inhibition | IC50 (ORF2p core [1]; [6]): > 1000 µM
Structure (SMILES): Cc1ccnc2c1NC(=O)c1cccnc1N2C1CC1 [Nevirapine, nevirapine]
IC50 ([3]; read-out: IC50): > 30 µM

IC50 (ORF2p core [1]; [6]): > 100 µM
Structure (SMILES): O=C(O)P(=O)(O)O [Foscarnet, foscarnet]
